Calls of active or inactive are those of the source. The rule behind the calls is not given here.
Tested on: counterscreen cell line, fluorescence, non-specific activators
Experiment: nonselective activators, counterscreen cells – cell-based, fluorescence, late stage, counter-screen for GalR3 antagonist project, dose response (AID 743092)

Compound	IC50
CC1(C)CC2CC(C)(CN2S(=O)(=O)c2ccc(C(=O)Nc3cccc(S(=O)(=O)N4CCOCC4)c3)cc2)C1 (configuration not stated)	> 29.9 µM (inactive)
COc1ccc(C(=O)CSc2nnc(Cn3cnc4ccccc43)o2)cc1	> 29.9 µM (inactive)
COc1ccc(CCNc2ncnc3sccc23)cc1OC	> 29.9 µM (inactive)
Cc1nc2ccccc2n1Cc1ccc(Cl)cc1	> 29.9 µM (inactive)
O=C(CSc1nnnn1C1CC2CCC1C2)Nc1ccnc2ccccc12 (configuration not stated)	> 29.9 µM (inactive)
S=C(NCCc1ccccc1)Nc1cccc2cnccc12	> 29.9 µM (inactive)
CC(C)(C)CN1CCN(Cc2nc(-c3ccc(F)cc3)cs2)CC1CCO (configuration not stated)	> 29.9 µM (inactive)
CCCCc1ccc(NC(=O)c2ccc(N(C)S(C)(=O)=O)cc2)cc1	> 29.9 µM (inactive)
COc1ccc(CN2CCC(C(=O)Nc3ccc(Oc4ccccc4)nc3)CC2)cc1F	> 29.9 µM (inactive)
O=C(CSc1nnc(Cn2nnc3ccccc32)o1)N(Cc1ccc(F)cc1)c1ccccc1	> 29.9 µM (inactive)
Cc1nn(C)c(Nc2ccc(Br)cc2)c1Br	> 29.9 µM (inactive)
CCCCCn1c(=O)[nH]c2cc(C(=O)N3CCN(Cc4ccc5c(c4)OCO5)CC3)ccc2c1=O	> 29.9 µM (inactive)
COc1ccc(NS(=O)(=O)c2ccc(NC(=O)c3ccc(CN4CCOCC4)cc3)cc2)cc1	> 29.9 µM (inactive)
CC(C)(C)c1ccc(C(=O)Nc2ccc(Oc3cccnc3)nc2)cc1	> 29.9 µM (inactive)
Cc1ccccc1Cn1c(C)nc2ccccc21	> 29.9 µM (inactive)
Cc1cc(CSc2ccccc2)ccc1NC(=O)c1ccc(CN2CCOCC2)cc1	> 29.9 µM (inactive)
NC(=O)c1c(-c2ccc(Cl)cc2Cl)csc1NC(=O)Cc1ccccc1	> 29.9 µM (inactive)
Fc1ccc(NC(=S)N2CCCN(c3ccc(C(F)(F)F)cn3)CC2)c(F)c1	> 29.9 µM (inactive)
CNc1ccccc1C(C)(C)c1cc(-c2ccc(F)cc2)no1	19.6 µM (inactive)

Compound	IC50
CCCOC(=O)c1ccc(OCC(O)Cn2c(C)nc3ccccc32)cc1 (configuration not stated)	> 29.9 µM (inactive)
CCCOc1ccc(CSc2nc3ccccc3[nH]2)cc1	> 29.9 µM (inactive)
Cc1cccc(Cl)c1NC(=O)N1CCCN(c2nc3ccc(Cl)cc3s2)CC1	> 29.9 µM (inactive)
Cc1oc(-c2ccc(Cl)cc2)nc1CSCC(=O)NC1CCN(Cc2ccccc2)CC1	26.8 µM (inactive)
CC(C)(C)NC(=O)COC(=O)c1snc(C(=O)NC2CCCCC2)c1N	> 29.9 µM (inactive)
COc1cc(CSc2nnnn2-c2ccc(C)cc2)cc(OC)c1OC	> 29.9 µM (inactive)
N#Cc1cc(-c2ccccc2)oc1NC(=O)c1ccco1	> 29.9 µM (inactive)
COc1cc2c(cc1OC)[C@@H]1C(=O)c3ccc4c(c3O[C@@H]1CO2)C[C@H](C(C)C)O4	> 29.9 µM (inactive)
Cc1cc(C(=O)CSc2nc(N)cc(=O)[nH]2)c(C)n1-c1ccc(OC(F)F)cc1	> 29.9 µM (inactive)
O=C(COc1ccc(C(=O)c2ccccc2)cc1)Nc1cccnc1	> 29.9 µM (inactive)
CSc1ccc(C(=O)C2CCCN(C(=O)CCc3c(C)nn(C)c3C)C2)cc1 (configuration not stated)	> 29.9 µM (inactive)
CCN(CC)S(=O)(=O)c1cc(NC(=O)CNc2cccc(S(=O)(=O)N3CCOCC3)c2)ccc1C	> 29.9 µM (inactive)
Cn1nc(C(C)(C)C)cc1C(=O)NCc1ccc(N2CCCC2=O)cc1	> 29.9 µM (inactive)
CC(=O)c1c(C)[nH]c(C(=O)COc2cc(C)ccc2C(C)C)c1C	> 29.9 µM (inactive)
NC(=O)c1nnn(Cc2cc(Cl)c(C(=O)c3ccc(Cl)cc3)c(Cl)c2)c1N	> 29.9 µM (inactive)
Cc1[nH]c(=O)c(C#N)cc1-c1ccccc1	> 29.9 µM (inactive)
O=C(Nc1nc(-c2ccc(Cl)cc2Cl)cs1)c1ccc(OCC2CCCO2)cc1 (configuration not stated)	> 29.9 µM (inactive)
COc1ccc(OC)c(CCNC(=O)Cn2nc(C)c3c(C)n(-c4ccc(C)cc4)nc3c2=O)c1	> 29.9 µM (inactive)
Cc1nn(C)c(C)c1CN(C)S(=O)(=O)c1ccc2ccccc2c1	> 29.9 µM (inactive)

Compound	IC50
CCOc1nc(C#N)nc(N2CCCCC2)n1	> 29.9 µM (inactive)
CCOC(=O)c1[nH]c2ccc(OC)cc2c1NS(=O)(=O)c1ccc(Cl)s1	> 29.9 µM (inactive)
O=C(Cc1ccc(Cl)cc1Cl)Nc1ccncc1Cl	> 29.9 µM (inactive)
COc1cccc2[nH]c3c(N4CCC(C)CC4)ncnc3c12	> 29.9 µM (inactive)
Cc1ccc(Oc2ccc(OCC(=O)Nc3ccncc3)cc2)cc1	> 29.9 µM (inactive)
COc1ccc(CN(C)c2ccc(S(=O)(=O)N3CCN(C)CC3)cc2[N+](=O)[O-])cc1OC	> 29.9 µM (inactive)
Nc1nonc1-n1nnc(C(=O)N/N=C/c2cc(Br)ccc2O)c1CSC1=NCCS1	> 29.9 µM (inactive)
CC(=O)c1cn(CC(=O)NCCc2c[nH]c3ccccc23)c2ccccc12	> 29.9 µM (inactive)
Cc1nn(C)c(Cl)c1NC(=O)OCc1ccc(Cl)cc1Cl	> 29.9 µM (inactive)
CC(=O)c1ccc(N2CCN(C(=S)Nc3ccc(Oc4ccccc4)cc3)CC2)cc1	> 29.9 µM (inactive)
CC(C)(C)c1ccc(-n2ncc3c2CCCC3NC(=O)C2(C(N)=O)CC2)cc1 (configuration not stated)	> 29.9 µM (inactive)
Cc1ccccc1-c1cc(C(=O)Nc2sc(C(=O)OC(C)C)c(C)c2C#N)c2ccccc2n1	> 29.9 µM (inactive)
CCOC(=O)Cc1csc(NC(=O)c2cc(=O)c3ccccc3o2)n1	> 29.9 µM (inactive)
O=S(=O)(NCc1ccncc1)c1ccc(Br)s1	> 29.9 µM (inactive)
Cc1cc(C)nc(SCC(=O)Nc2ccnc3ccccc23)n1	> 29.9 µM (inactive)
COc1ccc(-n2c(C)cc(C(=O)COC(=O)Cn3cnc4ccccc43)c2C)cc1	> 29.9 µM (inactive)
CCOc1cc(S(=O)(=O)NCc2ccncc2)ccc1Cl	> 29.9 µM (inactive)
Nc1cc(-c2ccc(Br)cc2)nn1Cc1ccccc1	> 29.9 µM (inactive)
CC1CC(=O)NN=C1c1ccc(N)c([N+](=O)[O-])c1 (configuration not stated)	> 29.9 µM (inactive)
